In US8859574B2 (IRM LLC, priority 2008, dated 2014) one finds IC50 data, which are given here for 22 molecules.

T1 sequence (P08069 999-1274 limits assumed): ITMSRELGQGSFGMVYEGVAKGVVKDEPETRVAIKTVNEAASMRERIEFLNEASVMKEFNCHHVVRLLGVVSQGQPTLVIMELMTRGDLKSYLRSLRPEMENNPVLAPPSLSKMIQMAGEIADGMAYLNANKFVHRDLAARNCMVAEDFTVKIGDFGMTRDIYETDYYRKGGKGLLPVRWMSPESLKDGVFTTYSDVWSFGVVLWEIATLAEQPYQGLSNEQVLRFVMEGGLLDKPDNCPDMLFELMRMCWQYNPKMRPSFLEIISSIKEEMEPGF

This assay addresses T1, IGF-1R Ba/F3 (Homo sapiens, UniProt P08069).
T1 construct: fused on or other part: TEL- (or BCR-) IGF-1R in Ba/F3: the kinase part holds the site
The assay can be described thus: Ba/F3 Cell Viability Inhibition Assay (IGF-1R Ba/F3). It is filed as cell-based, murine. The conditions noted are these: Tel-TK transformed Ba/F3 cells, 48 hours, Britelite luminescence. The source says:
The IC50 of a drug may be determined constructing a dose-response curve and examining the effect of different concentrations of antagonist on reversing agonist activity. IC50 values may be calculated for a given antagonist by determining the concentration needed to inhibit half of the maximum biological response of the agonist. To calculate IC50 values, a series of dose-response data (e.g., drug concentrations x1, x2, . . . , xn and growth inhibition y1, y2, . . . , yn, the values of y are in the range of 0-1) is generated. IC50 values may be determined by a computer-aided system using the formula: y=D+((A−D)/(1+10^(x-log(IC50)B) • where A is the ratio of growth inhibition between lowest drug concentration and control; B is the slope of sigmoidal curvel; and D is the ratio of growth inhibition between highest drug concentration and control.
Ba/F3 is a murine IL-3-dependent pro-B lymphoma cell line. Parental Ba/F3 cells are used to generate a panel of sublines whose proliferation and survival is rendered IL-3-independent by stable transduction with individual tyrosine kinases activated by fusion with the amino-terminal portion of TEL (amino acid 1-375) or BCR. In order to generate Ba/F3 cell lines transformed by Tel-Tyrosine Kinase (TK) fusions, parental Ba/F3 cells are infected with a retrovirus harboring each TEL-fusion kinase and subjected to puromycin selection and IL-3 withdrawal to obtain IL-3-independent, transformed Ba/F3 cells.
Each transformed Ba/F3 cells are cultured in RPMI-1640 media (Gibco Cat #11875093, Carlsbad, Calif.) supplemented with 10% FBS (Hyclone Cat #SV30014.03, Logan, Utah), 4.5 g/L glucose (Sigma #G5400, St. Louis, Mo.), 1.5 g/L sodium bicarbonate (Biowhittaker #17-613E, Walkersville, Md.) and Pen/Strep (Gibco #10378-016, Carlsbad, Calif.). Cells are splitted twice weekly.
The potency of test compounds against various Tel-TK transformed Ba/F3 lines is determined as follows. Exponentially growing BaF3 Tel-TK cells are diluted in fresh medium to 75,000 cells/mL and seeded into 384-well plates (3750 cells/well) at 50 μL/well using a μFill liquid dispenser (BioTek, Winooski, Vt., USA). Duplicate plates are run for each cell line. Test and control compounds are serially diluted with DMSO and arrayed in a polypropylene 384-well plate. […] of compound is transferred into the assay plates using a pin-transfer device, and the plates are incubated at 37° C. (5% CO2) for 48 hours. 25 μL Britelite (Perkin Elmer) is added and luminescence is quantified using Analyst GT (Molecular Devices). Custom curve-fitting software is used to produce a logistic fit of percent cell viability as a function of the logarithm of inhibitor concentration. The IC50 is interpolated as the concentration of compound needed to reduce cell viability to 50% of a DMSO control. Parental Ba/F3 cells that are maintained and cultured in presence of IL-3 (1 ng/ml in final) are diluted in fresh medium containing IL-3 (1 ng/ml in final) to 75,000 cells/mL following the same procedure as described above.
The term IC50 denotes the concentration that gives 50% inhibition. Read a high IC50 as lower potency. Turning to `Cc1cc(Nc2nc(Nc3cc(C)c(C4CCN(C(=O)CN5CCOCC5)CC4)cc3F)ncc2Cl)n[nH]1` [Compound 97, 1-(4-(4-(5-chloro-4-(5-methyl-1H-pyrazol-3-ylamino)pyrimidin-2-ylamino)-5-fluoro-2-methylphenyl)piperidin-1-yl)-2-morpholinoethanone], it took 20 nM to reach half-maximal inhibition (IC50).

Regarding `Cc1cc(Nc2nc(Nc3cc(C)c(C4CCN(Cc5cnccn5)CC4)cc3F)ncc2Cl)n[nH]1` [Compound 315, 5-chloro-N2-(2-fluoro-5-methyl-4-(1-(pyrazin-2-ylmethyl)piperidin-4-yl)phenyl)-N4-(5-methyl-1H-pyrazol-3-yl)pyrimidine-2,4-diamine], the IC50 amounted to 36 nM. This IC50 is about 1.8-fold higher than that of the molecule before. For `Cc1cc(Nc2nc(Nc3cc(C)c(C4CCN(Cc5ccnnc5)CC4)cc3C)ncc2Cl)n[nH]1` [Compound 21, 5-chloro-N2-(2,5-dimethyl-4-(1-(pyridazin-4-ylmethyl)piperidin-4-yl)phenyl)-N4-(5-methyl-1H-pyrazol-3-yl)pyrimidine-2,4-diamine] the value was 2 nM; for `CCNC(C)(C)C(=O)N1CCC(c2cc(C)c(Nc3ncc(Cl)c(Nc4cc(C)[nH]n4)n3)cc2C)CC1` [Compound 175, 1-(4-(4-(5-chloro-4-(5-methyl-1H-pyrazol-3-ylamino)pyrimidin-2-ylamino)-2,5-dimethylphenyl)piperidin-1-yl)-2-(ethylamino)-2-methylpropan-1-one], 5 nM. Turning to `Cc1cc(Nc2nc(Nc3cc(C)c(C4CCN(C(=O)CCCN5CCOCC5)CC4)cc3C)ncc2Cl)n[nH]1` [Compound 224, 1-(4-(4-(5-Chloro-4-(5-methyl-1H-pyrazol-3-ylamino)pyrimidin-2-ylamino)-2,5-dimethylphenyl)piperidin-1-yl)-4-morpholinobutan-1-one], 20 nM corresponded to half-maximal inhibition (IC50). `Cc1cc(Nc2nc(Nc3cc(C)c(C4CCN(CCS(C)(=O)=O)CC4)cc3C)ncc2Cl)n[nH]1` [Compound 56, 5-chloro-N2-(2,5-dimethyl-4-(1-(2-(methylsulfonyl)ethyl)piperidin-4-yl)phenyl)-N4-(5-methyl-1H-pyrazol-3-yl)pyrimidine-2,4-diamine] returned an IC50 of 6 nM. As for `CCc1cnc(N2CCC(c3cc(F)c(Nc4ncc(Cl)c(Nc5cc(C)[nH]n5)n4)cc3C)CC2)nc1` [Compound 149, 5-Chloro-N2-(4-(1-(5-ethylpyrimidin-2-yl)piperidin-4-yl)-2-fluoro-5-methylphenyl)-N4-(5-methyl-1H-pyrazol-3-yl)pyrimidine-2,4-diamine], the figure is 955 nM; as for `CCN1CCC(c2cc(F)c(Nc3ncc(Cl)c(Nc4cc(C)[nH]n4)n3)cc2C)CC1` [Compound 232, 5-chloro-N^2-(4-(1-ethylpiperidin-4-yl)-2-fluoro-5-methylphenyl)-N^4-(5-methyl-1H-pyrazol-3-yl)pyrimidine-2,4-diamine], 20 nM; as for `Cc1cc(Nc2nc(Nc3cc(C)c(C4CCN(C(=O)C5CN(C)C5)CC4)cc3F)ncc2Cl)n[nH]1` [Compound 117, (4-(4-(5-chloro-4-(5-methyl-1H-pyrazol-3-ylamino)pyrimidin-2-ylamino)-5-fluoro-2-methylphenyl)piperidin-1-yl)(1-methylazetidin-3-yl)methanone], 99 nM.

Take `CNC(=O)CN1CCC(c2cc(C)c(Nc3ncc(Cl)c(Nc4cc(C)[nH]n4)n3)cc2Cl)CC1` [Compound 45, 2-(4-(2-chloro-4-(5-chloro-4-(5-methyl-1H-pyrazol-3-ylamino)pyrimidin-2-ylamino)-5-methylphenyl)piperidin-1-yl)-N-methylacetamide]: the IC50 came to 18 nM. Compared with the last molecule, the IC50 is about 5.5-fold lower. With `Cc1cc(Nc2nc(Nc3cc(C)c(C4CCN(C(=O)CN(C)C)CC4)cc3C)ncc2Cl)n[nH]1` [Compound 75, 1-(4-(4-(5-chloro-4-(5-methyl-1H-pyrazol-3-ylamino)pyrimidin-2-ylamino)-2,5-dimethylphenyl)piperidin-1-yl)-2-(dimethylamino)ethanone], the IC50 was found to be 11 nM. This IC50 lies about 1.6-fold lower than the previous one. With `Cc1cc(Nc2nc(Nc3cc(C)c(C4CCN(CCS(C)(=O)=O)CC4)cc3F)ncc2Cl)n[nH]1` [Compound 55, 5-Chloro-N2-(2-fluoro-5-methyl-4-(1-(2-(methylsulfonyl)ethyl)piperidin-4-yl)phenyl)-N4-(5-methyl-1H-pyrazol-3-yl)pyrimidine-2,4-diamine], the IC50 amounted to 24 nM. `Cc1cc(Nc2nc(Nc3cc(C4CCNCC4)c(F)cc3C)ncc2Cl)n[nH]1` [Compound 8, 5-chloro-N2-(4-fluoro-2-methyl-5-(piperidin-4-yl)phenyl)-N4-(5-methyl-1H-pyrazol-3-yl)pyrimidine-2,4-diamine]: half-maximal inhibition (IC50) was put at 1930 nM. As for `Cc1cc(Nc2nc(Nc3cc(C)c(C4CCN(C(=O)c5nc(C(C)C)no5)CC4)cc3C)ncc2Cl)n[nH]1` [Compound 270, (4-(4-(5-chloro-4-(5-methyl-1H-pyrazol-3-ylamino)pyrimidin-2-ylamino)-2,5-dimethylphenyl)piperidin-1-yl)(3-isopropyl-1,2,4-oxadiazol-5-yl)methanone], the figure is 18 nM; as for `CNC(C)C(=O)N1CCC(c2cc(F)c(Nc3ncc(Cl)c(Nc4cc(C)[nH]n4)n3)cc2C)CC1` (stereo not shown) [Compound 85, 1-(4-(4-(5-chloro-4-(5-methyl-1H-pyrazol-3-ylamino)pyrimidin-2-ylamino)-5-fluoro-2-methylphenyl)piperidin-1-yl)-2-(methylamino)propan-1-one], 42 nM. Regarding `Cc1cc(Nc2nc(Nc3cc(C)c(C4CCN(C(=O)NCCN(C)C)CC4)cc3F)ncc2Cl)n[nH]1` [Compound 109, 4-(4-(5-chloro-4-(5-methyl-1H-pyrazol-3-ylamino)pyrimidin-2-ylamino)-5-fluoro-2-methylphenyl)-N-(2-(dimethylamino)ethyl)piperidine-1-carboxamide], half-maximal inhibition (IC50) was put at 60 nM.

Regarding `Cc1cc(Nc2nc(Nc3cc(C)c(C4CCN(S(=O)(=O)CCCN5CCCC5)CC4)cc3C)ncc2Cl)n[nH]1` [Compound 233, 5-chloro-N2-(2,5-dimethyl-4-(1-(3-(pyrrolidin-l-yl)propylsulfonyl)piperidin-4-yl)phenyl)-N4-(5-methyl-1H-pyrazol-3-yl)pyrimidine-2,4-diamine], the IC50 is 54 nM. This IC50 and that of the molecule before are within 1.5-fold of each other. Take `CCC(C(=O)NC)N1CCC(c2cc(C)c(Nc3ncc(Cl)c(Nc4cc(C)[nH]n4)n3)cc2C)CC1` (stereo not shown) [Compound 189, 2-(4-(4-(5-chloro-4-(5-methyl-1H-pyrazol-3-ylamino)pyrimidin-2-ylamino)-2,5-dimethylphenyl)piperidin-1-yl)-N-methylbutanamide]: half-maximal inhibition (IC50) required 7 nM.

Molecule `Cc1cc(Nc2nc(Nc3cc(C)c(C4=CCNCC4)cc3F)ncc2Cl)n[nH]1` [Compound 150, 5-chloro-N2-(2-fluoro-5-methyl-4-(1,2,3,6-tetrahydropyridin-4-yl)phenyl)-N4-(5-methyl-1H-pyrazol-3-yl)pyrimidine-2,4-diamine] showed an IC50 of 25 nM. For `CNC(=O)C(C)N1CCC(c2cc(C)c(Nc3ncc(Cl)c(Nc4cc(C)[nH]n4)n3)cc2C)CC1` (stereo not shown) [Compound 52, 2-(4-(4-(5-chloro-4-(5-methyl-1H-pyrazol-3-ylamino)pyrimidin-2-ylamino)-2,5-dimethylphenyl)piperidin-1-yl)-N-methylpropanamide] the value was 6 nM; for `Cc1cc(Nc2nc(Nc3cc(C)c(C4CC[N+]([O-])(C5CS(=O)(=O)C5)CC4)cc3F)ncc2Cl)n[nH]1` (stereo not shown) [Compound 295, 5-Chloro-N2-{4-[1-(1,1-dioxo-1λ6-thietan-3-yl)-1-oxide-piperidin-4-yl]-2-fluoro-5-methyl-phenyl}-N4-(5-ethyl-1H-pyrazol-3-yl)-pyrimidine-2,4-diamine], 39 nM; for `Cc1cc(Nc2nc(Nc3cc(C)c(C4CCN(C(=O)CN5C(C)(C)CCCC5(C)C)CC4)cc3C)ncc2Cl)n[nH]1` [Compound 104, 1-(4-(4-(5-chloro-4-(5-methyl-1H-pyrazol-3-ylamino)pyrimidin-2-ylamino)-2,5-dimethylphenyl)piperidin-1-yl)-2-(2,2,6,6-tetramethylpiperidin-1-yl)ethanone], 18 nM.
